Laboratory results from the NIST ThermoML archive (doi:10.1016/j.jct.2018.07.026).

Legend:
[1] = for Normal melting temperature: Crystal 1, DTA
[2] = Molar enthalpy of transition or fusion; conditions: Crystal 1; DSC
[3] = molar heat capacity at constant pressure; conditions: 78.8 kPa, Crystal, DSC

O=C(O)c1cccc([N+](=O)[O-])c1C(=O)O [3-nitro-1,2-benzenedicarboxylic acid]
Conditions	Molar enthalpy of transition or fusion [kcal/mol]	Normal melting temperature [°C]
[1]	–	223.2
[2]	13.2	–

[3]
Conditions	molar heat capacity at constant pressure [J/K/mol]
295.15 K	242.66
296.15 K	244.28
297.15 K	245.61
298.15 K	246.53
299.15 K	247.02
300.15 K	248.36
301.15 K	249.69
302.15 K	250.75
303.15 K	251.67
304.15 K	252.72
305.15 K	253.35
306.15 K	253.99
307.15 K	254.41
308.15 K	254.83
309.15 K	255.47
310.15 K	256.8
311.15 K	255.96
312.15 K	257.22
313.15 K	258
314.15 K	258.77
315.15 K	259.12
316.15 K	260.18
317.15 K	260.67
318.15 K	261.31
319.15 K	261.94
320.15 K	262.71
321.15 K	263.56
322.15 K	264.19
323.15 K	264.97
324.15 K	265.67
325.15 K	266.44
326.15 K	266.94
327.15 K	267.57
328.15 K	268.41
329.15 K	268.77
330.15 K	269.4
331.15 K	269.96
332.15 K	270.6
333.15 K	271.23
334.15 K	271.79
335.15 K	272.36
336.15 K	273.27
337.15 K	272.43
338.15 K	273.83
339.15 K	274.4
340.15 K	275.03
341.15 K	275.66
342.15 K	276.44
343.15 K	277.14
344.15 K	277.63
345.15 K	278.34
346.15 K	278.97
347.15 K	279.75
348.15 K	280.38
349.15 K	280.94
350.15 K	281.5
351.15 K	281.72
352.15 K	282.07
353.15 K	282.49
354.15 K	282.91
355.15 K	283.48
356.15 K	284.11
357.15 K	284.32
358.15 K	285.02
359.15 K	285.59
360.15 K	286.22
361.15 K	286.71
362.15 K	287.21
363.15 K	287.7
364.15 K	288.12
365.15 K	288.68
366.15 K	289.32
367.15 K	289.95
368.15 K	290.3
369.15 K	290.86
370.15 K	291.29
371.15 K	291.64
372.15 K	292.06
373.15 K	292.62
374.15 K	293.26
375.15 K	293.47
376.15 K	294.1
377.15 K	294.59
378.15 K	295.23
379.15 K	295.72
380.15 K	296.07
381.15 K	296.57
382.15 K	296.99
383.15 K	297.55
384.15 K	297.9
385.15 K	298.39
386.15 K	298.68
387.15 K	299.24
388.15 K	299.73
389.15 K	300.01
390.15 K	300.86
391.15 K	301.21
392.15 K	301.49
393.15 K	301.84
394.15 K	302.2
395.15 K	302.69
396.15 K	303.25
397.15 K	303.74
398.15 K	304.45
399.15 K	305.22
400.15 K	305.71
401.15 K	306.28
402.15 K	306.84
403.15 K	307.33
404.15 K	307.68
405.15 K	308.25
406.15 K	308.74
407.15 K	309.02
408.15 K	309.73
409.15 K	310.15
410.15 K	310.64
411.15 K	311.13
412.15 K	311.56

O=C(O)c1ccc([N+](=O)[O-])cc1C(=O)O [4-nitrophthalic acid]
Conditions	mass density [kg/m3]
[1], 298.15 K, 101.33 kPa, Crystal, Pycnometric method	1647

Conditions	Molar enthalpy of transition or fusion [kcal/mol]	Normal melting temperature [°C]
[1]	–	167
[2]	8.84	–

[3]
Conditions	molar heat capacity at constant pressure [J/K/mol]
295.15 K	229.53
296.15 K	230.9
297.15 K	232.06
298.15 K	233.01
299.15 K	233.22
300.15 K	234.59
301.15 K	236.28
302.15 K	237.02
303.15 K	237.97
304.15 K	239.13
305.15 K	239.66
306.15 K	240.19
307.15 K	240.5
308.15 K	240.61
309.15 K	240.93
310.15 K	242.51
311.15 K	241.24
312.15 K	242.62
313.15 K	243.57
314.15 K	244.09
315.15 K	244.83
316.15 K	245.36
317.15 K	246.1
318.15 K	246.2
319.15 K	246.94
320.15 K	248
321.15 K	248.74
322.15 K	249.37
323.15 K	250.22
324.15 K	250.95
325.15 K	251.69
326.15 K	252.22
327.15 K	252.64
328.15 K	253.38
329.15 K	254.02
330.15 K	254.54
331.15 K	255.07
332.15 K	255.71
333.15 K	256.23
334.15 K	256.76
335.15 K	257.5
336.15 K	258.34
337.15 K	256.97
338.15 K	258.45
339.15 K	258.98
340.15 K	259.4
341.15 K	259.93
342.15 K	260.67
343.15 K	261.41
344.15 K	261.72
345.15 K	262.25
346.15 K	262.78
347.15 K	263.52
348.15 K	263.94
349.15 K	264.47
350.15 K	264.99
351.15 K	265.42
352.15 K	266.05
353.15 K	266.26
354.15 K	266.79
355.15 K	267.32
356.15 K	267.74
357.15 K	267.95
358.15 K	268.58
359.15 K	268.9
360.15 K	269.64
361.15 K	269.85
362.15 K	270.27
363.15 K	270.59
364.15 K	271.12
365.15 K	271.86
366.15 K	272.17
367.15 K	272.81
368.15 K	273.23
369.15 K	274.07
370.15 K	274.39
371.15 K	275.02
372.15 K	275.23
373.15 K	275.66
374.15 K	276.29
375.15 K	276.61
376.15 K	277.03
377.15 K	277.56
378.15 K	278.51
379.15 K	279.03
380.15 K	279.56
381.15 K	280.3
382.15 K	280.83
383.15 K	281.57
384.15 K	282.1
385.15 K	282.84
386.15 K	283.26
387.15 K	284.21
388.15 K	284.95
389.15 K	285.37
390.15 K	286.64
391.15 K	287.48
392.15 K	288.22
393.15 K	288.32
394.15 K	289.27
395.15 K	290.33
